The source of these data is US5476848A, “14B(R) isomers of novel tetracyclic compounds having anti-allergic and anti-asthmatic activities, and their use” (Sankyo Company, Limited, priority 1989, dated 1995).

In experiment [1] the test system is eosinophil chemotaxis. Put plainly: Inhibitory effect of eosinophil chemotaxis to zymosan-activated serum (Test Example 4). In kind it is cell-based, guinea pig. The note with it: for Inhibitory effect (%) on chemotaxis of eosinophil / inhibition at 0.1 µg/mL: 0.1 μg/ml, ZAS; for inhibition at 0.1 µg/mL: Cavia porcellus, Eosinophil; for potency of the R-isomer relative to the racemate: eosinophil table, R-isomer vs racemate. From the text: Eosinophils were harvested from the peritoneal cavity of polymyxin B-treated guinea pigs (body weight, approx. 400 g) according to the method described by Pincus (Pincus, S. H. et al.: Blood, 52, 127-134 (1978)). The eosinophils were separated and purified by Ficoll-paque (Pharmacia) density gradient centrifugation. Then, the eosinophil chemotaxis to zymosan-activated serum (ZAS) was investigated by a modification of the Boyden micropore filter technique (Gosset, P. et al.: Clin. Exp. Immunol., 65, 654-663 (1986)). Briefly, the assay was carried out in a 48-well microchemotaxis assembly (Neuroprobe; Cabin John, Md., U.S.A.). Cell suspensions were adjusted to 2.5×10^5 /50 μl, and placed in the upper chamber separated from the chemoattractant (ZAS) solution in the lower chamber by a 3 μm pore size polycarbonate membrane filter (Nucleopore Co., Pleasanton, U.S.A.). The cells were incubated for 10 min at 37° C. with the test compounds, prior to their addition to the chemotaxis chamber. Migration was carried out at 37° C. in humidified air with 5% CO2 for 2 h. After the incubation, the migrated eosinophils in the lower Chamber were counted by a hemocytometer.
The percentage inhibition obtained with the test compound was calculated by comparison to the positive control (migration of non-treated cells in response to the ZAS), according to the formula:
Percent inhibition=[1-(A/B)]×100
A: (migration with a test compound)-(spontaneous migration)
B: (positive control migration)-(spontaneous migration)

The test system of experiment [2] is eosinophil accumulation. Put plainly: Inhibitory effect on antigen induced eosinophil accumulation (Test Example 4).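 For all read-outs here: oral dose 0.1 mg/kg.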 As to conditions: po, 1 hr before antigen challenge, BALF 24 hr after; for Inhibitory effect (%) on accumulation of eosinophil: 0.1 mg/kg; for inhibition at 0.1 mg/kg: Cavia porcellus, Eosinophil. In kind it is in vivo, guinea pig (male Hartley). As to the method: Male Hartley guinea pigs weighing approximately 400 g were sensitized with ovalbumin by the method described by Engineer et al. (Engineer, D. M. et al., J. Pharmacol., 62, 61-66 (1978)), and the number of eosinophils infiltrating into the bronchoalveolar space due to antigen challenge was examined.
Briefly, the animals were exposed to the antigen (ovalbumin) for 6 min. At 24 hr. after antigen challenge, the guinea pigs were anesthetized with pentobarbital (30 mg/kg, i.p.). The trachea was cannulated by a disposable intravenous catheter, and the airway lumen (especially in the right posterior lobe) was washed with 0.9% saline (10 ml/kg) kept at 37° C. The bronchoalveolar lavage fluid (BALF) from each animal was centrifuged (150 g for 10 min at 4° C.). After removing the supernatant, the cell pellet was resuspended in HBSS (Hank's balanced solution) and a total cell count was performed using a standard hemocytometer. Differential cell counts were done on smears fixed in methanol and stained with Wright-Giemsa solution, and by light microscopy under oil immersion (×1000). The proportion of eosinophil population was expressed as a percentage of total cells, and this ratio together with the total cell count was used to calculate the total number of eosinophils. The percent inhibition of the test compounds which was administered 1 hr before antigen challenge, was calculated as follows:
Percent inhibition=[1-(C-A)/(B-A)]×100
A: negative control: mean value of cell counts in BALF from the animals with inhaled saline
B: positive control: mean value of cell counts in BALF from the animals 24 h after antigen challenge
C: cell counts of BALF for the animals pretreated with a test compound 24 h after antigen challenge

The subject of experiment [3] is Passive Cutaneous Anaphylaxis (PCA). Put plainly: Inhibitory effect on passive cutaneous anaphylaxis (PCA) in rats (Test Example 1). In kind it is in vivo, rat (male SD). The note with it: Rattus norvegicus, po, read-out: Inhibitory rate. As to the method: Male SD rats (5 weeks old) were used as the test animals in groups, each containing 4 animals. The rats were sensitized by intradermal injection of 0.05 ml of the diluted antiserum solution in the dorsal position. 48 hours after this injection, a suspension of the test compound in an aqueous 0.5% w/v tragacanth solution was orally administered to the rats, fasted for one day, and 60 minutes later they were injected in the caudal vein with 5 ml/kg body weight of physiological saline containing 0.4% w/v egg albumin and 1.0% w/v Evans Blue.
The inhibitory rate was calculated by the following equation.
Inhibitory rate (%)=(1-B/A)×100
A: amount of exuded dye in the control group
B: amount of exuded dye in the test group.

Experiment [4] concerns Antigen-induced Bronchoconstriction. Put plainly: Effect on antigen-induced bronchoconstriction in sensitized guinea pigs (Test Example 2). In kind it is in vivo, guinea pig (male Hartley). The note with it: Cavia porcellus, po, 60 min before challenge, read-out: Inhibitory rate. As to the method: The test animals used were male guinea pigs of the Hartley strain (weighing about 400 to 500 g). These animals were sensitized according to Morris' method [H. R. Morris; Br. J. Pharmac., 67, 179-184 (1979)]. The guinea pigs were subcutaneously and intraperitoneally injected twice, each time with 25 mg of egg albumin (grade 5, Sigma) at weekly intervals. 7 days after the second of these weekly injections, the animals were fasted for one day and then exposed to an aerosol of egg albumin (10 mg/ml). All of the animals so exposed responded with convulsions, indicating respiratory distress due to airway constriction, within 6 minutes.
60 minutes before the egg albumin challenge, one of the test compounds shown in the following Table 5 was administered orally to each of the animals.

Structures can show the parent of a compound that is named as a salt.

With `CCOC(=O)CCCN1CCN2c3ccccc3Cc3ccccc3C2C1` (racemic) [19 HCl racemate], in experiment [1], the “Inhibitory effect (%) on chemotaxis of eosinophil” value is recorded as 5%. The “Inhibitory effect (%) on accumulation of eosinophil” value in experiment [2] was determined as 48%.

In the case of `CCOC(=O)CCCN1CCN2c3ccccc3Cc3ccccc3C2C1` (racemic) [19 fumarate racemate], the inhibition at 0.1 µg/mL in experiment [1] was 3%. Besides, the “Inhibitory effect (%) on accumulation of eosinophil” value in experiment [2] was found to be 24%.

For the compound `CCOC(=O)CCCCCN1CCN2c3ccccc3Cc3ccccc3C2C1` (racemic) [21 HCl racemate], the inhibition at 0.1 µg/mL in experiment [1] came out at 23%. For the same compound, the inhibition at 0.1 mg/kg in experiment [2] was 37%.

For the compound `O=C(O)CCCN1CCN2c3ccccc3Cc3ccccc3C2C1` (racemic) [22 HCl racemate], in experiment [1], the “Inhibitory effect (%) on chemotaxis of eosinophil” value is on record as 6%. Also, the “Inhibitory effect (%) on accumulation of eosinophil” value in experiment [2] is 31%.

In experiment [1], `O=C(O)CCCN1CCN2c3ccccc3Cc3ccccc3C2C1` (racemic) [22 free racemate] yielded an inhibition at 0.1 µg/mL of 9%. Also, the “Inhibitory effect (%) on accumulation of eosinophil” value in experiment [2] amounted to 3%.

`O=C(O)CCCCCN1CCN2c3ccccc3Cc3ccccc3C2C1` (racemic) [24 HCl racemate]: in experiment [1], the inhibition at 0.1 µg/mL worked out at 25%. The compound also showed an inhibition at 0.1 mg/kg in experiment [2] of 43%.

For the compound `CCOC(=O)CCCN1CCN2c3ccccc3Cc3ccccc3C2C1` (racemic) [Example 19, Ethyl 4-(1,2,3,4,10,14b-hexahydrodibenzo[c,f]pyrazino[1,2-a]azepin-2-yl)butanoate], in experiment [3], the inhibition at 0.05 mg/kg was determined as 55% and the inhibition at 0.2 mg/kg stood at 61%. Besides, in experiment [4], the inhibition at 0.025 mg/kg came out at 40% and the inhibition at 0.4 mg/kg came to 100%.

Turning to `O=C(O)CCCCCN1CCN2c3ccccc3Cc3ccccc3C2C1` (racemic) [Example 24, 6-(1,2,3,4,10,14b-Hexahydrodibenzo[c,f]pyrazino[1,2-a]azepin-2-yl)hexanoic acid], in experiment [3], the inhibition at 0.05 mg/kg was 46% and the inhibition at 3.1 mg/kg turned out to be 74%. Moreover, in experiment [4], the inhibition at 0.1 mg/kg came to 80% and the inhibition at 0.4 mg/kg was found to be 100%.

As for `CCOC(=O)CCCN1CCN2c3ccccc3Cc3ccccc3[C@@H]2C1` [19 HCl R-isomer], in experiment [1], the “Inhibitory effect (%) on chemotaxis of eosinophil” value was determined as 43%. In addition, in experiment [2], the “Inhibitory effect (%) on accumulation of eosinophil” value turned out to be 58%.

With `CCOC(=O)CCCN1CCN2c3ccccc3Cc3ccccc3[C@H]2C1` [19 HCl S-isomer], the “Inhibitory effect (%) on chemotaxis of eosinophil” value in experiment [1] is 1%. The “Inhibitory effect (%) on accumulation of eosinophil” value in experiment [2] stood at 41%.

Compound `CCOC(=O)CCCN1CCN2c3ccccc3Cc3ccccc3[C@@H]2C1` [19 fumarate R-isomer] displayed an inhibition at 0.1 µg/mL in experiment [1] of 55%. Further, in experiment [2], the inhibition at 0.1 mg/kg turned out to be 62%.

On to `CCOC(=O)CCCN1CCN2c3ccccc3Cc3ccccc3[C@H]2C1` [19 fumarate S-isomer], for which, in experiment [1], the “Inhibitory effect (%) on chemotaxis of eosinophil” value is on record as 0%. For the same compound, in experiment [2], the inhibition at 0.1 mg/kg turned out to be 32%.

For `CCOC(=O)CCCCCN1CCN2c3ccccc3Cc3ccccc3[C@@H]2C1` [21 HCl R-isomer], in experiment [1], the inhibition at 0.1 µg/mL worked out at 50% and the “potency of the R-isomer relative to the racemate” value is “about double the potency”. The inhibition at 0.1 mg/kg in experiment [2] turned out to be 80%.

For `CCOC(=O)CCCCCN1CCN2c3ccccc3Cc3ccccc3[C@H]2C1` [21 HCl S-isomer], the inhibition at 0.1 µg/mL in experiment [1] is 9%. In experiment [2], this compound had an inhibition at 0.1 mg/kg of 13%.

As to `O=C(O)CCCN1CCN2c3ccccc3Cc3ccccc3[C@H]2C1` [22 HCl S-isomer], in experiment [1], the inhibition at 0.1 µg/mL came to 5%. Besides, in experiment [2], the inhibition at 0.1 mg/kg is 47%.

As to `O=C(O)CCCCCN1CCN2c3ccccc3Cc3ccccc3[C@@H]2C1` [24 HCl R-isomer], in experiment [1], the inhibition at 0.1 µg/mL is 47% and the “potency of the R-isomer relative to the racemate” value is listed as “about double the potency”. This compound also displayed an inhibition at 0.1 mg/kg in experiment [2] of 62%.

`O=C(O)CCCCCN1CCN2c3ccccc3Cc3ccccc3[C@H]2C1` [24 HCl S-isomer] registered an inhibition at 0.1 µg/mL in experiment [1] of 0%. For the same compound, in experiment [2], the inhibition at 0.1 mg/kg is 2%.

Turning to `CCOC(=O)COCCN1CCN2c3ccccc3Cc3ccccc3C2C1` (stereo not drawn) [Example 1], in experiment [3], the inhibition at 0.2 mg/kg amounted to 56% and the inhibition at 3.1 mg/kg was found to be 65%. Moreover, in experiment [4], the inhibition at 0.025 mg/kg was 20% and the inhibition at 0.1 mg/kg turned out to be 50%.

As to `O=C(O)COCCN1CCN2c3ccccc3Cc3ccccc3C2C1` (stereo not drawn) [Example 2], in experiment [3], the inhibition at 0.05 mg/kg was 62% and the inhibition at 0.8 mg/kg came to 74%. Besides, in experiment [4], the inhibition at 0.025 mg/kg was determined as 20% and the inhibition at 0.1 mg/kg stood at 80%.

Regarding `CCOC(=O)COCCN1CCN2c3ccc(Cl)cc3Cc3ccccc3C2C1` (stereo not drawn) [Example 4], the inhibition at 3.1 mg/kg in experiment [3] turned out to be 63%.

For `COC(=O)COCCN1CCN2c3ccc(Br)cc3Cc3ccccc3C2C1` (stereo not drawn) [Example 5, Methyl 2-(8-bromo-1,2,3,4,10,14b-hexahydrodibenzo[c,f]pyrazino[1,2-a]azepin-2-yl)ethoxyacetate], in experiment [3], the inhibition at 0.8 mg/kg was determined as 23% and the inhibition at 3.1 mg/kg came to 67%.

For `O=C(O)COCCN1CCN2c3ccc(Cl)cc3Cc3ccccc3C2C1` (stereo not drawn) [Example 9], the inhibition at 3.1 mg/kg in experiment [3] amounted to 63%.

As to `O=C(O)COCCN1CCN2c3ccc(Br)cc3Cc3ccccc3C2C1` (stereo not drawn) [Example 10], the inhibition at 3.1 mg/kg in experiment [3] was determined as 53%.

As for `O=C(O)COCCN1CCN2c3ncccc3Cc3ccccc3C2C1` (stereo not drawn) [Example 11, 2-(1,2,3,4,10,14b-Hexahydrobenzo[c]pyrazino[1,2-a]pyrido[5,6-c]azepin-2-yl)ethoxyacetic acid], in experiment [3], the inhibition at 0.8 mg/kg was found to be 49% and the inhibition at 3.1 mg/kg turned out to be 60%.

Take `OCCCCCCN1CCN2c3ccccc3Cc3ccccc3C2C1` (stereo not drawn) [Example 18, 6-(1,2,3,4,10,14b-Hexahydrodibenzo[c,f]pyrazino[1,2-a]azepin-2-yl)hexanol]: the inhibition at 0.4 mg/kg in experiment [4] was 100%.

Regarding `CN(C)C(=O)COCCN1CCN2c3ccccc3Cc3ccccc3C2C1` (stereo not drawn) [Example 27, α-[2-(1,2,3,4,10,14b-Hexahydrodibenzo[c,f]pyrazino[1,2-a]azepin-2-yl)ethoxy]-N,N-dimethylacetamide], the inhibition at 3.1 mg/kg in experiment [3] came out at 69%.

Take `CCCN(CCC)C(=O)COCCN1CCN2c3ccccc3Cc3ccccc3C2C1` (stereo not drawn) [Example 31, α-[2-(1,2,3,4,10,14b-Hexahydrodibenzo[c,f]pyrazino[1,2-a]azepin-2-yl)ethoxy]-N,N-dipropylacetamide]: in experiment [3], the inhibition at 0.8 mg/kg is 32% and the inhibition at 3.1 mg/kg came to 76%.

Regarding `O=C(O)CN1CCN2c3ccccc3Cn3cccc3C2C1` (stereo not drawn) [Prior art compound G, Sodium (1,3,4,14btetrahydro-2H,10H-pyrazino[1,2a]pyrrolo[2,1c][1,4]benzodiazepin-yl)acetate, reference compound], the inhibition at 3.1 mg/kg in experiment [3] was found to be 28%.
